Results as given in ChEMBL document CHEMBL1201862, “PubChem BioAssay data set” (2004).
Active and inactive are the calls of the source.

Assays:
[1] = biological target: T1, Replicative DNA helicase DnaB (Mycobacterium tuberculosis, UniProt P9WMR3); assay: DnaB intein splicing inhibitors, dose response, biochemical, cell-free fluorescence (AID 449749); assay type: functional
T1 sequence (P9WMR3 whole entry): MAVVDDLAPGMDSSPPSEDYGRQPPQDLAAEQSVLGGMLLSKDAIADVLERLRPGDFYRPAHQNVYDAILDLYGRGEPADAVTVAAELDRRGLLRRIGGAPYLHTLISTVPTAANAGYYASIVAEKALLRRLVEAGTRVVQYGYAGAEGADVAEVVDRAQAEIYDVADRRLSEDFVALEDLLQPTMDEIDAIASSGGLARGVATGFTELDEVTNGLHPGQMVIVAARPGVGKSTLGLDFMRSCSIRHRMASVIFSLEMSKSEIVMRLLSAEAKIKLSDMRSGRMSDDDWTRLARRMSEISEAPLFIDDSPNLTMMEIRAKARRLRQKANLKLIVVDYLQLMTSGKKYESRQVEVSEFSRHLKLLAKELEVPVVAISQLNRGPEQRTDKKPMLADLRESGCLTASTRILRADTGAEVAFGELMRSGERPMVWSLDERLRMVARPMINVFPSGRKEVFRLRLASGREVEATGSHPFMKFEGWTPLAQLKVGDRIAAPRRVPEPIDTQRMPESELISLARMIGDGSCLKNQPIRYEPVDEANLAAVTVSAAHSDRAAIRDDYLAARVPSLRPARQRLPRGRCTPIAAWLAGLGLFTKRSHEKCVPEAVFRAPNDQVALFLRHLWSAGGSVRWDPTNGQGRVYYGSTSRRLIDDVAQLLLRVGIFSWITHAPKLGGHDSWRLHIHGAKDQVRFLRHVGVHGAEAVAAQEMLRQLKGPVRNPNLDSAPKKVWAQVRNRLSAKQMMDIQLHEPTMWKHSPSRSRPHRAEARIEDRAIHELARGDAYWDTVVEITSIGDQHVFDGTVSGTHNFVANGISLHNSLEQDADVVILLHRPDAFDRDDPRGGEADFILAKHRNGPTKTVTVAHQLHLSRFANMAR

Protein RecA = biological target: T2, Protein RecA (Mycobacterium tuberculosis, UniProt P9WHJ3); assay: Fluorescence Cell-Free Homogeneous Dose Retest to Identify Inhibitors of RecA-Intein Splicing Activity. [Related pubchem assays (depositor defined):AID2097, AID2223, AID489010, AID492950]; assay type: functional
T2 sequence (P9WHJ3 whole entry): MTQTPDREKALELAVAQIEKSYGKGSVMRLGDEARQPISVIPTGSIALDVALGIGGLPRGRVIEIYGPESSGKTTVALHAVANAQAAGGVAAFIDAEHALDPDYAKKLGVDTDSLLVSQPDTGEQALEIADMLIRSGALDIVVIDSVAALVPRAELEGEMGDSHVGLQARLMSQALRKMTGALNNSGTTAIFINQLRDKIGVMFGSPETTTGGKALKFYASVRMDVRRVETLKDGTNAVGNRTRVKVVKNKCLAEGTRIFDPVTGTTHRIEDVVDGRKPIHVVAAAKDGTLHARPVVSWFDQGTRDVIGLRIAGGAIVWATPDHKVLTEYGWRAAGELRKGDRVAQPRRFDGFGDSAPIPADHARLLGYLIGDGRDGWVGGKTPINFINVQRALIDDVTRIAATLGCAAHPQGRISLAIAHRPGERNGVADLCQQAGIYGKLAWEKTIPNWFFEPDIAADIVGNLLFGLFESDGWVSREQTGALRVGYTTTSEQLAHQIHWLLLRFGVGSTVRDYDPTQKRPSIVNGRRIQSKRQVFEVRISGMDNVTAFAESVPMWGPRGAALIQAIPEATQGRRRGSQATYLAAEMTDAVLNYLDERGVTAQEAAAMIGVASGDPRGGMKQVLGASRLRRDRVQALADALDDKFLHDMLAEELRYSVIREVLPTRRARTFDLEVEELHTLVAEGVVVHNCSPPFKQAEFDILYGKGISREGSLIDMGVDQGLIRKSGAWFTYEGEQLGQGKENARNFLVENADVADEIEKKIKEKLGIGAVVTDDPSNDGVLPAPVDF

[2] = growth suppression of beta-catenin-knockout colon cells, dose response, cell-based, HCT116, human colon tumor (AID 1045); assay type: functional;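 also: HCT116 colon tumor cells with beta catenin knocked out; cells exposed to compound for 60 hours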
[3] = growth suppression of PTEN-null colon cells, dose response, cell-based, HCT116 PTEN knockout (AID 1047); assay type: functional;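 also: HCT116 colon tumor cells with PTEN knocked out; cells exposed to compound for 60 hours before readout; potency for loss of cell viability measured by luminescence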
[4] = inhibitors of intracellular T. cruzi replication, confirmation, NIH3T3 host cells, beta-gal luminescence (AID 2044); assay type: functional, cell-based;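 also: intracellular parasites grown in NIH/3T3 mouse fibroblasts as host cells; luminescent beta-galactosidase reporter signal from transgenic T. cruzi replicating inside host cells; inhibitors lower the luminescence signal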
[5] = cytotoxicity toward NIH3T3 fibroblasts, dose response, counter-screen, cell-based, ATP luminescence, mouse fibroblasts (AID 2010); assay type: functional;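 also: cells exposed to compound for about 90 hours before reading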
[6] = C. albicans growth with fluconazole, confirmation, fluorescence, retest (AID 2467); assay type: functional, cell-based
[7] = NIH-3T3 fibroblast cytotoxicity, dose response, cytotoxicity control, cell-based, fluorescence, Alamar Blue, secondary assay (AID 2327); assay type: functional;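 also: NIH-3T3 mouse fibroblasts cultured with fluconazole at 8 µg/mL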
[8] = microbe, parasite or virus in culture; assay type: functional; conditions: Mycobacterium tuberculosis
[9] = biological target: T3, Heat shock factor protein 1 (Mus musculus, UniProt P38532); assay: HSF1 potentiators in luciferase reporter cells, confirmation, cell-based, NIH3T3, luminescence, dose retest (AID 435004); assay type: functional;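 also: stress induced by proteasome inhibitor MG132 added 30 min after compound; luciferase reporter driven by HSF1 response element in NIH3T3 cells; actives raise luminescence as potentiators of the MG132 stress response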
T3 sequence (P38532 whole entry): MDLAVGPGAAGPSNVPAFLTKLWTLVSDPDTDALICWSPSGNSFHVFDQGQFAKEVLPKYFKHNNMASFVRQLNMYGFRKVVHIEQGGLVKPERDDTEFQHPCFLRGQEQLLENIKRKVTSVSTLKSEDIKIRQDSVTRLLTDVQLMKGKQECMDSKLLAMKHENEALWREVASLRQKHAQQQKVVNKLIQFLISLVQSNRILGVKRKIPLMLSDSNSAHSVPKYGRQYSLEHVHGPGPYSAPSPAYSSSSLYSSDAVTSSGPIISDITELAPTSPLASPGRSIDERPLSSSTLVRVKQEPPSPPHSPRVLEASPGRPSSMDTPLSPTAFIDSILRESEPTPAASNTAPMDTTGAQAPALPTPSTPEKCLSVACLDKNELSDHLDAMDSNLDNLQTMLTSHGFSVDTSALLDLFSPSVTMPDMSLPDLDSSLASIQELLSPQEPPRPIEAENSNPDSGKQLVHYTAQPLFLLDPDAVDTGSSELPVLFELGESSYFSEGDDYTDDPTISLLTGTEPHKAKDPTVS

[10] = Shn3 3'UTR reporter inhibitors, dose response, cell-based, Clone20 osteoblasts, firefly luciferase, cherry-picked (AID 624132); assay type: functional;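 also: firefly luciferase luminescence from reporter carrying the Shn3 3'UTR in osteoblasts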
Streptococcus = assay: Group A Streptococcus viability loss, dose response, counter-screen for streptokinase expression inhibitor project, luminescence, BacTiterGlo (AID 1915); assay type: functional, organism-based;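 also: potency for reduction of bacterial viability or growth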
Streptokinase A = biological target: T4, Streptokinase A (Streptococcus pyogenes serotype M1, UniProt P10520); assay: S. pyogenes streptokinase expression inhibitors, potency, dose response, plasminogen activation absorbance, OD405 (AID 1914); assay type: functional, Streptococcus pyogenes M1 GAS;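 also: secreted streptokinase activity via plasminogen activation per viability signal from cell pellet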
T4 sequence (P10520 whole entry): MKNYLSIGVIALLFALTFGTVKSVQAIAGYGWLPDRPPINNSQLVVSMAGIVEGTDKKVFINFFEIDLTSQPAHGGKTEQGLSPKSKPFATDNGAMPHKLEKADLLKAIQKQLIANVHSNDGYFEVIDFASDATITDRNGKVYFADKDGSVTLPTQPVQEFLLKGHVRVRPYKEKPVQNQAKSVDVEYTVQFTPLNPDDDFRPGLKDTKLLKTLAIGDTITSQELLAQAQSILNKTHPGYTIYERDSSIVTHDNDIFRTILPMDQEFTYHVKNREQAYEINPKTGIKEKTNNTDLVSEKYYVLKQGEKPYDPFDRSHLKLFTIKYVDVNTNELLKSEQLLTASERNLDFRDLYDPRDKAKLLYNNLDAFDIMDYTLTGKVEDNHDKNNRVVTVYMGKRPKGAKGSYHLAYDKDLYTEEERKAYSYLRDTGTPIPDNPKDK

[11] = tested on: Streptococcus sp. 'group A'; assay: growth inhibition of control SK(-) GAS strain, dose response, counter-screen for streptokinase expression inhibitor project, luminescence, kanamycin, BacTiterGlo, confirmation (AID 1900); assay type: functional, organism-based
[12] = Luminescence Cell-Based Dose Retest to Confirm Inhibitors of Cancer Stem Cells. [Related pubchem assays (depositor defined):AID2717, AID2721]; assay type: functional; conditions: Homo sapiens
[13] = P. falciparum Dd2 growth inhibitors, dose response, SYBR Green, cherry-picked samples (AID 1159567); assay type: functional, cell-based

| SMILES | AC50 [1] | EC50 (Protein RecA) | AC50 [13] | further results |
| --- | --- | --- | --- | --- |
| COc1ccc(S(=O)(=O)c2cnc3ccccc3n2)cc1 | 54.1 µM (active) | 16.4 µM (active) | – | – |
| CCn1c(COc2cccc3ccccc23)nnc1SCC(N)=O | 273 µM (active) | > 380 µM (inactive) | – | – |
| O=c1cc(-c2c(F)c(F)c(F)c(F)c2F)oc2c(F)c(F)c(F)c(F)c12 | 7.17 µM (active) | 2.92 µM (active) | – | EC50 [2]: 3.37 µM (active); EC50 [3]: 5.95 µM (active); EC50 [4]: 0.663 µM (active); EC50 [5]: 1.04 µM (active); EC50 [6]: 0.52 µM (active); EC50 [7]: 2.66 µM (inconclusive) |
| CC(C(=O)NC(=O)NC1CCCCC1)N(C)CC(=O)Nc1ccc(F)c(F)c1F (stereo not given) | – | – | – | CC50 [8]: 25.8 µM (active) |
| Cc1ccc(C(C(=O)NCC2CCCO2)N(Cc2ccccc2)C(=O)c2ccc(-c3ccccc3)[nH]2)o1 (stereo not given) | – | – | – | CC50 [8]: > 40 µM (active) |
| Cc1ccc2nc(-c3cccs3)oc(=O)c2c1 | 117 µM (active) | 60.5 µM (active) | – | – |
| CCOc1cc(/C=C2/C(=N)N3C(=NC2=O)SN=C3S(=O)(=O)C(C)C)ccc1OC(=O)c1ccco1 | > 380 µM (inactive) | 18.6 µM (active) | – | – |
| Cc1cc(NC(=O)c2cc(-c3ccncc3)nc3c(C)cccc23)no1 | – | – | – | CC50 [8]: 9.08 µM (active) |
| COC(=O)C(C)Sc1ncnc2c1nnn2-c1ccc(F)cc1 (stereo not given) | 5.57 µM (active) | 5.09 µM (active) | – | EC50 [9]: 11.6 µM (active) |
| NC(=O)CC[C@@H]1NC(=O)[C@H](CO)NC(=O)c2cc([N+](=O)[O-])cc(I)c2NCC[C@@H](C(N)=O)NC1=O | 47.5 µM (active) | 13.3 µM (active) | – | – |
| Cc1nn(Cc2ccccc2)c2c1C(c1cccnc1)C(C#N)=C(N)O2 (stereo not given) | 8.8 µM (active) | 2.78 µM (active) | – | – |
| CNS(=O)(=O)c1cccc(C(=O)OCc2cc(C(C)=O)ccc2OC)c1 | – | – | – | AC50 [10]: 11.2 µM (active) |
| CC(C)S(=O)(=O)C1=NSC2=NC(=O)/C(=C\c3ccc(OC(=O)c4ccco4)cc3)C(=N)N21 | 17 µM (active) | 10.9 µM (active) | – | – |
| CC(C)(C)[C@@H]1CCC(=O)N(CC[C@H](Sc2ccccc2)c2ccccc2)CC1 | – | – | – | EC50 (Streptococcus): 5.87 µM (active); EC50 (Streptokinase A): > 150 µM (not active); EC50 [11]: 6.49 µM (active); AC50 [12]: 3.92 µM (active) |
| CC1=NN(c2ccc(N)cc2)C(=O)C1 | 2.41 µM (active) | 1.78 µM (active) | – | – |
| O=C1NC(c2ccc(-c3ccccc3[N+](=O)[O-])o2)C(C(=O)c2ccc(F)cc2)C(O)(C(F)(F)F)N1 (stereo not given) | 13.3 µM (active) | > 380 µM (inconclusive) | – | – |
| Cc1nc2c(-c3ccc(F)cc3)c(C)nn2c(O)c1Cl | 31.1 µM (active) | 11 µM (active) | – | – |
| Cc1cc(C(=O)N/N=C\C(Br)=C\c2ccccc2)c(C)o1 | – | – | – | CC50 [8]: > 40 µM (active) |
| C/C(CC(=O)Nc1ccc(Cl)cc1C(F)(F)F)=N\NC(N)=S | – | – | – | CC50 [8]: > 40 µM (active) |
| COc1ccc2c3c([nH]c2c1)[C@H](CO)N(Cc1ccccc1Cl)CC31CN(C(=O)C2CC2)C1 | – | – | 5.65 µM (active) | – |
| C/C=C/c1ccc([C@@H]2[C@@H](CO)N(CC3CCCC3)C23CN(S(=O)(=O)CC)C3)cc1 | – | – | 4.7 µM (active) | – |
| C[C@H]1CN([C@@H](C)CO)C(=O)c2cc(NC(=O)Cc3cn(C)c4ccccc34)ccc2O[C@H]1CN(C)S(=O)(=O)c1cccs1 | – | – | 6.48 µM (active) | – |
| COc1ccc2c3c([nH]c2c1)[C@@H](CO)N(Cc1ccccc1F)CC31CN(C(=O)C2CCC2)C1 | – | – | 7.2 µM (active) | – |
| C[C@@H]1CN([C@@H](C)CO)C(=O)c2c(c3ccccc3n2C)-c2ccccc2CO[C@H]1CN(C)Cc1cccc(C(F)(F)F)c1 | – | – | 3.05 µM (active) | – |
| CCCC(=O)N1CCC2(CC1)CN(Cc1cccnc1)[C@@H](CO)c1[nH]c3cc(OC)ccc3c12 | – | – | 5.19 µM (active) | – |
| O=C(Cc1ccncc1)N1CC[C@@H]2[C@@H](CO)Nc3ccc(-c4cccc(F)c4)cc3[C@@H]21 | – | – | 3.43 µM (active) | – |
| C[C@@H]1CN([C@@H](C)CO)C(=O)c2c(c3ccccc3n2C)-c2ccccc2CO[C@H]1CN(C)C(=O)Nc1ccc(-c2ccccc2)cc1 | – | – | 3.77 µM (active) | – |
| COc1ccc(-c2ccc([C@@H]3[C@@H](CO)N4C(=O)CN(C(=O)C5CCCC5)C[C@@H]34)cc2)cc1 | – | – | 4.83 µM (active) | – |
